# Measured values: patent US5541208A, “Indole diterpene alkaloid compounds” (priority 1994, dated 1996)
# pIC50: −log10 of the molar value. Where two headings read alike, the source gives them in different places.
# Tests used:
# [1] = target: T1, bovine aortic sarcolemma membrane vesicles ([^125 I]ChTX receptor) (Bos taurus, UniProt Q28204); experiment: [^125 I]ChTX binding assay with aortic sarcolemma membrane vesicles; details: for effect on [^125 I]ChTX binding: 1 nM to 100 μM
# T1 construct: bovine aortic s sarcolemma membrane vesicles; from tissue; host or cells: bovine aorta, sarcolemma membrane vesicles
# T1 sequence (Q28204 whole entry): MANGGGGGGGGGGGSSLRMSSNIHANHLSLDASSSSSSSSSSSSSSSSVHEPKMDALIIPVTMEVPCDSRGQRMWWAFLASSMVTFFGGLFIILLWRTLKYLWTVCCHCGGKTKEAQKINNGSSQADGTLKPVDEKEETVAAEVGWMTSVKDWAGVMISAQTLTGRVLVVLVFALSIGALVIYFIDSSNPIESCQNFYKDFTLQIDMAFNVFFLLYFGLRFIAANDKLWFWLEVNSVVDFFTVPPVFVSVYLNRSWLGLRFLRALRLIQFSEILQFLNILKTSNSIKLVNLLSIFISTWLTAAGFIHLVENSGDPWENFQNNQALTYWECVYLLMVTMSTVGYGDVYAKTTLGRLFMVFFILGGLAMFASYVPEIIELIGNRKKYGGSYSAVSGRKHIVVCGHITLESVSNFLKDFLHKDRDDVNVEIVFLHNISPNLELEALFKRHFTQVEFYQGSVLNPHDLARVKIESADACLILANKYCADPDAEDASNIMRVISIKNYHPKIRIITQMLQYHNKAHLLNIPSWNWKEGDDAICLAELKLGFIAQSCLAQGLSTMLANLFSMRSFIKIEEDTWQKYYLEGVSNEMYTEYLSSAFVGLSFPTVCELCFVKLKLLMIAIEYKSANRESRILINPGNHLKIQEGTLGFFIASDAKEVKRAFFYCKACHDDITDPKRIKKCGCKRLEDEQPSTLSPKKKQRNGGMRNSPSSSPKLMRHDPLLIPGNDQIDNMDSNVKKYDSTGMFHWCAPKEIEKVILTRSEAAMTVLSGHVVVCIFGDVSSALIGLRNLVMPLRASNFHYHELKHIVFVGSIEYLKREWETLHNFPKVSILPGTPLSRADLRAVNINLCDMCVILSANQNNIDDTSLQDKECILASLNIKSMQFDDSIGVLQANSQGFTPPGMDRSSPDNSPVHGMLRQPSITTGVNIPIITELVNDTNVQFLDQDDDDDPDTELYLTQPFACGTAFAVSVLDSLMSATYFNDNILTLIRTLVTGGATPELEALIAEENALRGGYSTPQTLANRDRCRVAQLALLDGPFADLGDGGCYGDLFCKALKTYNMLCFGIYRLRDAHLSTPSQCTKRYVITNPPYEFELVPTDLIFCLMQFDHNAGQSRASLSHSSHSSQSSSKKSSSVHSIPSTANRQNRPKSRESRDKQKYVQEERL
# T1 sequence (Q28067 whole entry partner): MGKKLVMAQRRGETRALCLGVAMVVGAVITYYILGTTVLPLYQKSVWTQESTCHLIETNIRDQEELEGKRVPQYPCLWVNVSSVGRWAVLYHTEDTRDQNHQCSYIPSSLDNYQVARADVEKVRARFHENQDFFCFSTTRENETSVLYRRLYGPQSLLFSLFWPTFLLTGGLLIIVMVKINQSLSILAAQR
# Experimental: The interaction of [^125 I]ChTX with bovine aortic s sarcolemma membrane vesicles was determined under conditions as described (Vazquez et al., 1989, J. Biol. Chem. 264, 20902-20909). Briefly, sarcolemma membrane vesicles were incubated in 12×75 polystyrene tubes with ca. 25 pM [^125 I]ChTX (2200 Ci/mmol), in the absence or presence of test compound, in a media consisting of 20 mM NaCl, 20 mM Tris-HCl pH 7.4, 0.1% bovine serum albumin, 0.1% digitonin. Nonspecific binding was determined in the presence of 10 nM ChTX. Incubations were carried out at room temperature until ligand binding equilibrium is achieved at ca. 90 min. At the end of the incubation period, samples were diluted with 4 mL ice-cold 100 mM NaCl, 20 mM Hepes-Tris pH 7.4 and filtered through GF/C glass fiber filters that have been presoaked in 0.5% polyethylenimine. Filters were rinsed twice with 4 mL ice-cold quench solution. Radioactivity associated with filters was determined in a gamma counter. Specific binding data in the presence of each compound (difference between total binding and nonspecific binding) was assessed relative to an untreated control.
# [2] = target: T2, maxi-K channels from bovine aortic smooth muscle (Bos taurus, UniProt Q28204); experiment: Patch clamp recording of maxi-K channel currents in excised inside-out membrane patches; format: biochemical; details: for inhibition at 0.01 µM: pH 7.2; for pIC50: table of Example 4, read-out: 50% CHANNEL BLOCK; for block of maxi-K channels relative to Compound C: compared with Compound C
# T2 construct: membrane patches excised from cultured bovine aortic smooth muscle cells; endogenous in cells; host or cells: cultured bovine aortic smooth muscle cells
# T2 sequence (Q28204 whole entry): as the sequence (Q28204 whole entry) above
# Excerpt: Patch clamp recordings of currents flowing through large-conductance calcium-activated potassium (maxi-K) channels were made from membrane patches excised from cultured bovine aortic smooth muscle cells using conventional techniques (Hamill et al., 1981, Pflugers Archiv. 391, 85-100) at room temperature. Glass capillary tubing (Gamer #7052) was pulled in two stages to yield micropipettes with tip diameters of approximately 1-2 microns. Pipettes were typically filled with solutions containing (mM): 150 KCl, 10 Hepes (4-(2-hydroxyethyl)-1-piperazine ethanesulfonic acid), 1 Mg, 0.01 Ca, and adjusted to pH 7.20 with 3.7 mM KOH. After forming a high resistance (>10^9 ohms) seal between the sarcolemmal membrane and the pipette, the pipette was withdrawn from the cell, forming an excised inside-out membrane patch. The patch was excised into a bath solution containing (mM): 150 KCl, 10 Hepes, 5 EGTA (ethylene glycol bis(13-aminoethyl ether)-N,N,N',N'-tetraacetic acid), sufficient Ca to yield a free Ca concentration of 1-5 μM, and the pH was adjusted to 7.2 with 10.5 KOH. For example, 4.568 mM Ca was added to give a free concentration of 2 μM at 22 ° C. An AXOPATCH 1C amplifier (Axon Instruments, Foster City, Calif.) with a CV-4 headstage was used to control the voltage and to measure the currents flowing across the membrane patch. The input to the headstage was connected to the pipette solution with a Ag/AgCl wire, and the amplifier ground was connected to the bath solution with a Ag/AgCl wire covered with a tube filled with agar dissolved in 0.2M KCl. Maxi-K channels were identified by their large single channel conductance (~250 pS) and sensitivity of channel open probability to membrane potential and intracellular calcium concentration.
# Data were stored on a RACAL STORE 4DS FM tape recorder (Racal Recorders, Vienna, Va.) or on digital video tape using a video casette recorder after digitizing the signal with VR-10 (Instrutech Corp., Belmont N.Y.) PCM video encoder. The signal was also recorded on chart paper with a GOULD 2400S chart recorder (Gould Inc., Cleveland Ohio). For quantitative analysis, the data was played into a DEC11-73 (Digital Equipment Corp., Maynard, Mass.) after digitization with a DT2782-8D1A analogue to digital converter (Data Translation Inc., Marlboro, Mass.), or played into a Mac IIx or Quadra 700 computer (Apple Computers) after digitization with an ITC-16 interface (Instrutech Corp., Belmont, N.Y.).
smiles,measurement,setting,value
"CC1(C)ON=C2C=C3C(CCC4(C)C3(O)CCC3Cc5c([nH]c6ccccc56)C34C)OC21 (stereo not shown) [Compound F, Paxizoline]",effect on amount of toxin bound to its receptor,[1]; 50 nM to 2 μM,small increase in the amount of toxin bound to its receptor
same,effect on toxin binding,[1]; concentrations above 5 μM,concentration-dependent inhibition of binding
same,inhibition at 0.01 µM,"[2]; 10 nM, read-out: decrease in channel activity",~50%
same,pIC50,[2],~8.00
"CC(C)(O)C1CC(O)C2(C(=O)O)C(CCC3(C)C2CCC2Cc4c([nH]c5ccccc45)C23C)O1 (stereo not shown) [Compound D, hydroxypaspalinic acid]",effect on [^125 I]ChTX binding,[1],did not have any effect on binding
same,block of channel activity,[2]; 1 μM,complete block was not observed
same,block of maxi-K channels relative to Compound C,[2],weaker blockers of maxi-K channels than Compound C
same,inhibition at 0.01 µM,"[2]; 10 nM, read-out: reduction in channel open probability",< 50%
same,pIC50,[2],~6.00
"COC(=O)C12C(O)CC(C(C)(C)O)OC1CCC1(C)C2CCC2Cc3c([nH]c4ccccc34)C21C (stereo not shown) [Compound E, methyl hydroxypaspalinate]",effect on [^125 I]ChTX binding,[1],did not affect [^125 I]ChTX binding
same,effect on channel open probability,[2]; 1 μM,no significant effect on channel open probability
same,block of channel activity,[2]; 10 μM,incomplete block of channel activity
same,time over which block of channel activity slowly increased,[2]; 10 μM,5 to 10 min
same,block of maxi-K channels relative to Compound C,[2],weaker blockers of maxi-K channels than Compound C
same,pIC50,[2],< 5.00
CC(C)=CCc1cccc2[nH]c3c(c12)CC1CCC2(O)C45OC4C4OC(C=C(C)C)OC(C)(C)C4OC5=CCC2(C)C31C (stereo not shown) [Compound C],inhibition at 10 µM,[1]; read-out: inhibition of [^125 I]ChTX binding,29%
same,block of maxi-K channels / channel activity,[2]; 10 nM,rapid and complete block
same,reversal of block on washout,"[2]; 10 nM, brief (~10 min) washout",not reversed
same,pIC50,[2],> 8.00
